According to patent US10718770B2, “Methods for screening compounds for treating or preventing a viral infection or a virus-related condition” (ABIVAX, priority 2015, dated 2020):

Key:
[1] = target: T1, CBC complex (CBP20 and CBP80) (Homo sapiens, UniProt P52298+Q09161); experiment: UV crosslinking of purified recombinant CBP20 and CBP80 (CBC complex), SDS-PAGE / Western blot; format: binding; settings: purified recombinant CBP20 and CBP80, after UV irradiation
T1 construct: made in house
T1 sequence (P52298 1-156): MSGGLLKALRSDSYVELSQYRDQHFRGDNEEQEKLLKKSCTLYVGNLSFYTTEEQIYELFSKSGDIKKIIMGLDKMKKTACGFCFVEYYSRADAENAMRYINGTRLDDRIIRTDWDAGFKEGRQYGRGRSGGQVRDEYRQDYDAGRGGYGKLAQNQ
T1 sequence (Q09161 1-790): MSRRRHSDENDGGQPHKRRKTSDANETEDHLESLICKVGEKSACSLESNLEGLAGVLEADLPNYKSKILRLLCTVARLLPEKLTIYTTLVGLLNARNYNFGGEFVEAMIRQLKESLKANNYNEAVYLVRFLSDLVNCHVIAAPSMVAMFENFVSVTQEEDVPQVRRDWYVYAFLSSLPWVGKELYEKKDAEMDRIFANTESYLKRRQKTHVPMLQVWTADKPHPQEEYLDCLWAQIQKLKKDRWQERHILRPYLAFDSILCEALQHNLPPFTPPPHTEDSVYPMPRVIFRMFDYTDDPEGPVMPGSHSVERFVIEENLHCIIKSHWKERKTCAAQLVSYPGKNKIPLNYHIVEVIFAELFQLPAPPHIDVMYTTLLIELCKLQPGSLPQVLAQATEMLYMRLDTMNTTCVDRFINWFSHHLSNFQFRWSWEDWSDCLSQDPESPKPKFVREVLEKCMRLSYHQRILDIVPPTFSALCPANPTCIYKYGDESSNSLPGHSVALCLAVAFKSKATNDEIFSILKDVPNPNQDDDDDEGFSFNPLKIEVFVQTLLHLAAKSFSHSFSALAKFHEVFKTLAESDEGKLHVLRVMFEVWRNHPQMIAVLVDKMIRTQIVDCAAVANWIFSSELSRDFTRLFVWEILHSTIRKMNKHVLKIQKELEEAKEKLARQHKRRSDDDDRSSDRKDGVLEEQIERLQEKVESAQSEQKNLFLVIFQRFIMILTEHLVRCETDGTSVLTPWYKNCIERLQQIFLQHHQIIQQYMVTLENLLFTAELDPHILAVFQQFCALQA
Protocol: FIG. 2. Compound 1 interacts with the CBC complex. Purified recombinant CBP20 and CBP80 proteins were incubated with increasing concentrations of Compound 1 (left panel) or Compound 1-N-glucuronide (right panel, Gluc) and treated for 30 minutes with UV light. […] Left panel: from left to right, incubation with 0.1 (lane 1), 1 (lane 2), 10 (lane 3) and 50 μM (lane 4) of Compound 1. Right panel: from left to right, incubation with 1 (lane 1), 10 (lane 2), 50 (lane 3), 100 μM (lane 4) and 200 μM (lane 5) of Compound 1-N-glucuronide.
FIG. 3. Compound 1 promotes the interaction of CBP20 with CBP80. A) Purified recombinant CBP20 and CBP80 proteins were incubated with the indicated concentrations of Compound 1-N-glucuronide and they were either untreated (lanes 1-3), treated during 15 min (lanes 4-6) or 30 min (lanes 7-9) with UV light. Proteins were analyzed by SDS-PAGE and stained with Coomassie blue. […] B) Recombinant human CBC was incubated with Compound 1-N-glucuronide and treated with UV for 15 min. After crosslinking the proteins were resolved in SDS-PAGE and stained with Coomassie blue (left panel). Stained proteins (Band 4, Band 5 and Band 7) were digested with trypsin and analysed by mass spectrometry. […]

Recombinant human CBC = target: T2, Recombinant human CBC (Homo sapiens, UniProt P52298+Q09161); experiment: Gel-mobility shift assay: binding of capped RNA to the CBC complex; settings: native gel; Compound 1 5-50 μM, Compound 1-N-glucuronide 5-100 μM, m7GpppG 12 mM
T2 construct: made in house
T2 sequence (P52298 1-156): T1 sequence (P52298 1-156)
T2 sequence (Q09161 1-790): T1 sequence (Q09161 1-790)
Protocol: FIG. 4. […] Recombinant human CBC was incubated with a capped RNA substrate and analyzed by native gel electrophoresis in order to resolve the different RNA and RNA-protein complexes: free RNA (lane 1), and CBC-RNA complexes (lanes 2-10) in the presence of 12 mM of m7GppG (lanes 10) or 5 μM, 10 μM or 50 μM of Compound 1 (lanes 2-4, respectively) or 5 μM, 10 μM, 50 μM or 100 μM of Compound 1-N-glucuronide ([…], respectively).
Gel-mobility shift assay in the presence of a m(7)GpppG cap analogue has been established according to the protocol described in Mazza et al. (Large-scale induced fit recognition of an m(7)GpppG cap analogue by the human nuclear cap-binding complex. EMBO J. 21, 5548-5557 (2002)).
Recombinant human CBC was incubated with a capped RNA substrate and analyzed by native gel electrophoresis in order to resolve the different RNA and RNA-protein complexes according to Mazza et al. (Large-scale induced fit recognition of an m(7)GpppG cap analogue by the human nuclear cap-binding complex. EMBO J. 21, 5548-5557 (2002).

[2] = target: SR protein splicing factor SRSF1 (Homo sapiens, UniProt Q07955); settings: cited from earlier work
SR protein splicing factor SRSF1, sequence (Q07955 whole entry): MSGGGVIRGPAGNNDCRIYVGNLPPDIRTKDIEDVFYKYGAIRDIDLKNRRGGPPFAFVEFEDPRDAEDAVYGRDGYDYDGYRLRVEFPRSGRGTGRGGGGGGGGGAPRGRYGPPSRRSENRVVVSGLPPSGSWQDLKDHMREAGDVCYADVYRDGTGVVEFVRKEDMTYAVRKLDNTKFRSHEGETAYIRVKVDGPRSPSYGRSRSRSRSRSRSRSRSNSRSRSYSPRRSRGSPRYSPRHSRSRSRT

Row | Compound | covalent bridging (UV crosslinking) between CBP20 and CBP80 [1] | competition for binding of capped RNA to the CBC complex (Recombinant human CBC) | production of key viral proteins ([2]; HIV-1) | splicing enhancer activity of SRSF1 [2]
1 | O=C(O)[C@H]1O[C@@H](N(c2ccc(OC(F)(F)F)cc2)c2ccc3cccc(Cl)c3n2)[C@H](O)[C@@H](O)[C@@H]1O [Compound 1-N-glucuronide, 8-chloro-N-glucuronide-N-(4-(trifluoromethoxy)phenyl)quinolin-2-amine] | promote UV crosslinking of CBP20 and CBP80 | neither Compound 1 nor Compound 1-N-glucuronide interfere |  | 
2 | Cc1c2ccnc(Cl)c2cc2c3cn(C)ccc-3nc12 [IDC16, 10-chloro-2,6-dimethyl-2H-pyrido[3′,4′:4,5]pyrrolo[2,3-g]isoquinoline] |  |  | suppresses the production of key viral proteins | interfere with splicing enhancer activity
3 | Cn1c[n+]([C@@H]2O[C@H](COP(=O)(O)OP(=O)([O-])OP(=O)(O)OC[C@H]3O[C@@H](n4cnc5c(=O)[nH]c(N)nc54)[C@H](O)[C@@H]3O)[C@@H](O)[C@H]2O)c2nc(N)[nH]c(=O)c21 [m^7GpppG, reference compound] |  | competed |  | 
